| Structure (SMILES) | melting point [°C] |
| --- | --- |
| O=C(NNS(=O)(=O)c1ccccc1)c1ccc2c(c1)CCO2 | 181 to 183 |
| Cc1nc2cc3c(cc2[nH]1)[nH]c(=O)n3C | 300 |
| CC(C)(C)c1csc(-c2cc3cc(Cc4nc(C(=O)O)cs4)ccc3o2)n1 | 227 to 230 |
| CC(C)c1cccc(C(C)C)c1NC(=O)C1CCCC(Cc2ccccn2)(c2ccccc2)C1=O (configuration not stated) | 164 to 166 |
| CCCCCCN1CN(C)C=C1C(=O)NCCCCCCOc1ccc(OC)cc1 | 35 to 36 |
| Cn1c(C(=O)O)cc(=O)c2cc(O)c(=O)c(Br)cc21 | > 250 |
| CC(=O)N1N=C(c2ccc([N+](=O)[O-])cc2)c2ccc(Cl)cc2CC1C (configuration not stated) | 174 to 175 |
| Cc1cc2c(s1)Oc1cccc(C)c1N=C2N1CCN(C)CC1 | 114 to 117 |
| COc1cc2c(c3c1OC(C)(C)C3)C(c1ccn(Cc3ccc(C(=O)NCCO)cc3)c(=O)c1)=NC(C)(C)C2 | 220 to 222 |
| O=C(O)c1ccc(CCCC2SCC(=O)N2CCC2(O)CCCC2)cc1 (configuration not stated) | 149 to 150 |
| CC(CO)NC(=O)c1cnc(N2CCC(N3C(=O)OCc4ccccc43)CC2)c(Cl)c1 (configuration not stated) | 125 to 128 |
| CN(C(=O)c1cc(-c2ccccc2)c2sccc2c1)c1ccccc1 | 127 |
| COC(=O)Cc1cc2c(c([N+](=O)[O-])c1)N(C(C)=O)CC2 | 136 to 137 |
| CC=C(C)C1CCC2C3CC=C4CC(O)CCC4(C)C3CCC12C (configuration not stated) | 140 to 145 |
| O=C1C2=C(CCCC2)C(Cl)N1c1ccc(Cl)cc1F (configuration not stated) | 89 to 90 |
| Cc1c(NC(=O)C(CSC(=O)C2CCCCC2)Cc2ccccc2)cccc1C(=O)O (configuration not stated) | 117 to 120 |
| COC(=O)CC(=O)NCc1cc(Br)cc2[nH]c(=O)c(=O)[nH]c12 | > 300 |
| Cc1ccc(C=Cc2ccc(N(c3ccccc3)c3ccc4c5c(cccc35)CC4)cc2)cc1 | 148 to 149 |
| CN(Cc1cc2c3c(c1)c(=O)c(C(=O)NCc1ccc(Cl)cc1)cn3CC(=O)N2C)C[C@@H](O)c1ccsc1 | 137 to 139 |
| Cn1cc(C(=O)O)c2cccc(F)c21 | 225 to 227 |
| CCCCCCCCCCCCCCCCCCNC(=O)OCC1(CO)CCCO1 (configuration not stated) | 57 to 58 |

| Structure (SMILES) | melting point [°C] |
| --- | --- |
| CC(C)(C)OC(=O)NC1CCCCc2cc(OCC3CCCCC3)c(C(N)=O)cc21 (configuration not stated) | 193 to 194 |
| O=C1Nc2cccc(-c3cccc4c3oc3ccccc34)c2C12COc1cc3c(cc12)OCO3 (configuration not stated) | > 230 |
| CN(C)S(=O)(=O)c1ccccc1-c1ccc2c(c1)S(=O)(=O)NC(C1CCCCC1)N2 (configuration not stated) | 290 to 300 |
| c1ccc2c(c1)SCCc1c-2n(Cc2ccc(OCCCN3CCCCC3)cc2)c2ccccc12 | 70 to 71 |
| CCc1nc2c(cnn2CC)c(NC2CCOCC2)c1CNC(=O)c1cc(C)cc(C(=O)O)c1 | 236 to 239 |
| O=C1Nc2ccccc2N(C(=O)CCN2CCCCC2)c2ccc(Cl)cc21 | 170 to 172 |
| CCCc1nc2c(N)nc3ccccc3c2n1CCCCCC(C)=O | 161 to 163 |
| CCC1c2cccn2-c2ccc(Br)cc2N1S(=O)(=O)c1ccc(O)cc1 (configuration not stated) | 206 to 208 |
| COc1ccc2c(c1)C(C(=O)N(Cc1ccc(N)cc1)c1ccc(C(C)C)cc1)CCC2 (configuration not stated) | 115 to 117 |
| CC(=O)N1CCc2cc(CC(C)Br)cc([N+](=O)[O-])c21 (configuration not stated) | 119 to 120 |
| Cn1c(=O)c2c(N)ncnc2n(C)c1=O | > 300 |
| CC(CCl)CCCC(C)C1CC=C2C3=C(CCC21C)C1(C)CCC(O)C(C)(C)C1CC3 (configuration not stated) | 145 to 146 |
| Nc1cc(-c2ccccc2)c(=O)n2c1-c1sccc1CC2 | 180 to 182 |
| Fc1ccc2c(c1)[C@H]1N[C@@H](CNC(c3ccccc3)(c3ccccc3)c3ccccc3)C[C@@H]1c1ccccc1C2 | 58 to 60 |
| CC(C)SC1=C(Cl)CSS1=O (configuration not stated) | 60 |
| O=C(O)[C@H](Cc1ccccc1)NS(=O)(=O)c1ccc(N2CCN(c3ccccc3)CC2)cc1 | 192 to 193 |
| CCOC(=O)C(=O)c1cn(CCNC(=O)OC(C)(C)C)c2ccccc12 | 114 to 115 |
| CCc1ccc2[nH]c(C(=O)OCc3ccccc3)cc2c1 | 99 |
| O=C(c1cc(C(F)(F)F)cc(C(F)(F)F)c1)N1CCOc2nccc(-c3ccccc3)c2C1 | 179 to 180 |
| O=C(CN1CCCCC1=O)N1CCC(C2c3ncc(Br)cc3CCc3cc(Cl)cc(Br)c32)CC1 (single isomer, unassigned; (+)) | 138 to 139 |
| NS(=O)(=O)c1cc(C(=O)O)cc(NCc2ccccc2)c1Oc1ccc(OCc2ccccc2)cc1 | 249 to 251 |

| Structure (SMILES) | melting point [°C] |
| --- | --- |
| COc1cccc(-c2ccc(-c3ccccc3S(=O)(=O)Nc3onc(C)c3C)cc2)n1 | 132 to 134 |
| O=C(O)Cc1ccc(-n2sc3ccccc3c2=O)cc1 | 173 to 175 |
| NS(=O)(=O)CCCOc1ccc2ncnn2n1 | 145 to 147 |
| COc1ccc(-c2cc(F)cc3c2NC(CN)CO3)cc1 (configuration not stated) | 72 |
| COC(=O)C(CCCBr)Oc1cc2c(cc1[N+](=O)[O-])CCC2 (configuration not stated) | 154 to 155 |
| COc1ccc(C(=O)N(C(=O)c2ccc(OC)cc2)c2nc3ccc(N(C)C)cc3c(NCc3ccco3)c2C#N)cc1 | 143 |
| CN(c1ncccc1C=O)C1CCN(C(=O)OC(C)(C)C)CC1 | 90 to 91 |
| Cc1cc(Br)c2[nH]c(=O)n(CCCN3CC=C(c4ccc(Cl)cc4)CC3)c(=O)c2c1 | 212 to 214 |
| Cc1ccc(CN2C(=O)c3cccc4cccc2c34)cc1 | 108 to 110 |
| COC(=O)c1cc(F)c(OS(=O)(=O)c2c(C)cc(C)cc2C)nc1Nc1ccc(F)cc1F | 153 to 155 |
| CN1C(=O)CC[C@]2(C)c3ccc(C(=O)OC(c4ccccc4)c4ccccc4)cc3CC[C@@H]12 | 130 to 131 |
| [N-]=[N+]=NCC(=O)Nc1ccccc1 | 83 |
| CCC(=O)Oc1ccc2c(c1)CCC1C2CCC2(C)C1CC(O)C2OC(=O)CC (configuration not stated) | 105 |
| O=C(Nc1nc(C(F)(F)F)co1)C1c2ccc(F)cc2Oc2cc(F)ccc21 | 265 |
| O=C(O)c1ccccc1C(=O)N1CC2CCC(C1)O2 | 149 to 150 |
| CCCCCCCCn1nnnc1I | 40 |
| COc1cc(OC)c(-c2nc(N3CC(C)NC(C)C3)c3c(C)c(C#N)sc3n2)cc1OC (configuration not stated) | 186 to 188 |
| Clc1ccc(N2CC3CCC(C2)N3Cc2ccccc2)cc1 | 115 to 117 |
| CC(=O)c1ccc(NC(=O)NCCN(CCNC(=O)Nc2ccc(C(C)=O)cc2)CCNC(=O)Nc2ccc(C(C)=O)cc2)cc1 | 189 to 190 |
| CCCOc1ccc(C(=O)Nc2ccccc2NC(=O)c2ccc(OCCC)cc2)cc1 | 195 |
| NC(=O)c1c(Cl)cc(Cl)c(OCC(=O)O)c1Cl | 261 to 262 |

More lines, now with the values ahead:

| melting point [°C] | Structure (SMILES) |
| --- | --- |
| 199 to 201 | CNS(=O)(=O)c1ccccc1Nc1nc(Nc2ccc3c(c2)CCN(S(C)(=O)=O)CC3)ncc1Cl |
| 90 to 92 | C[C@@H](Cn1ncc2ccc(OC[C@@H]3CO3)c(C=O)c21)NC(=O)OCc1ccccc1 |
| 115 to 116 | Cc1nnc(-c2ccc3occ(-c4cccc(CO)c4)c3c2)o1 |
| 120 to 121 | CCn1ncc2c(Cl)c3cc(SC)ccc3nc21 |
| 163 to 164 | N#CC(c1ccncc1)c1nnc(Nc2ccc3ncsc3c2)c2ccccc12 (configuration not stated) |
| 92 to 94 | CCOC(=O)COc1ccc2cc(Br)ccc2c1Cl |
| 180 | CCOC(=O)c1cc2c(F)cccc2[nH]c1=O |
| 99 to 100 | CCC1(C)CC(=O)C(C(=O)Nc2ccc(C(F)(F)F)cc2)C(=O)C1 (configuration not stated) |
| 110 to 111 | Nc1nc(Cl)c(N)c(NCCCCO)n1 |
| 198 to 201 | COc1ccccc1NS(=O)(=O)c1ccc(NC2=C(Cl)C(=O)c3ccccc3C2=O)cc1 |
| 119 to 120 | COC(=O)c1cncc(OCc2nc(-c3ccccc3)oc2C)c1 |
| > 300 | Cn1c(=S)c(C(=O)C2=C(O)CCCC2=O)nc2ccccc21 |
| 249 to 250 | Fc1ccc(Nc2ncnc3cc(-c4ccoc4)ccc23)cc1Cl |
| 139 to 140 | N#Cc1c(Nc2ccccc2)nn(Cc2ccccc2)c1N |
| 208 to 211 | CNC(Cc1c[nH]c2c(Cl)cccc12)C(=O)O (configuration not stated) |
| 148 to 149 | NC(=S)NCCC(O)(c1ccc(F)cc1)c1ccccn1 (configuration not stated) |
| 45 to 47 | N#Cc1c(Cl)cccc1C(F)(F)F |
| 116 to 118 | CCC(=O)Nc1ccc(OC)c(=O)cc1 |
| > 300 | CNN(NC)C(=O)Nc1cccc2c1C(=O)c1c-2n[nH]c1-c1ccc(OC)cc1 |
| 131 | CNC(=S)C1(c2ccccn2)CCCS1 (configuration not stated) |

| melting point [°C] | Structure (SMILES) |
| --- | --- |
| 178 to 180 | Cc1nc(Nc2ccccc2)sc1-c1cccnc1 |
| 110 | O=CNCc1c(Cl)ccc2cc(Cl)cnc12 |
| 112 to 114 | C=CCN(CC=C)c1ccc(C(C)N(O)C(N)=O)cc1 (configuration not stated) |
| > 300 | Oc1cccc(-c2ccncc2)c1 |
| 154 to 164 | O=C(O)COc1coc2ccccc2c1=O |
| 127 | Fc1ccc(Nc2nc(-c3ccc(F)cc3)cs2)cc1 |
| 124 to 125 | CC(=O)c1ccc(C=CC(=O)NCCO)cc1 |
| 227 to 228 | CNC(=NC#N)Nc1ccc(Cl)nc1 |
| 139 to 141 | N#CC(O)CC12CCC(c3ccccc31)c1ccccc12 (configuration not stated) |
| 156 to 158 | CC(=O)NNC(=O)c1cccc(I)c1 |
| 127 to 129 | CCc1ccc2[nH]c(SCC(F)(F)F)nc2c1 |
| 121 to 122 | CCc1ccc(CCOc2ccc(NC(=O)N(C)C)cc2)nc1 |
| 87.2 to 87.9 | COc1ccc(C(=O)C=Cc2cccc(N(C)C)c2)c(OC)c1OC |
| 298 to 300 | Cc1[nH]c(-c2ccccc2)nc1-c1cc(C(C)(C)C)c(O)c(C(C)(C)C)c1 |
| > 270 | Cc1cc(N2CCN(c3ccccc3)CC2)c(C#N)c(=O)[nH]1 |
| 100 to 102 | CNCC(O)COc1ccc(C#N)cc1 (configuration not stated) |
| 132 to 133 | Cc1ccnc(CCOc2ccc(NC(=O)N(C)C)cc2)c1 |
| 112 to 113 | COc1cc(C)ccc1Oc1ccc(C=O)cc1C#N |
| 210 to 212 | CC(=O)Oc1c(C=C(C#N)C#N)[nH]c2ccccc12 |

From a melting point compilation (Tetko et al.; mined from patent text by program, amines drawn as free bases though some values may be those of a salt)
